Reference: patent US20120220581A1, “IMIDAZO[1,2-b]PYRIDAZINE DERIVATIVES AND THEIR USE AS PDE10 INHIBITORS” (Janssen-Cilag, S.A., priority 2009, published 2012)

Tests used:
[1] = target: T1, Rat recombinant PDE10A (rPDE10A2) (Rattus norvegicus, UniProt Q9QYJ6); assay: In vitro assay PDE10A (SPA, 3H-cAMP); assay type: biochemical; settings: pIC50 corresponds to the −log IC50 expressed in mol/L; read-out: PDE10A2 pIC50 (converted)
T1 construct: inferred from the Ni metal chelate purification; made in house; host or cells: Sf9 insect cells (baculovirus)
T1 sequence (Q9QYJ6 1-794): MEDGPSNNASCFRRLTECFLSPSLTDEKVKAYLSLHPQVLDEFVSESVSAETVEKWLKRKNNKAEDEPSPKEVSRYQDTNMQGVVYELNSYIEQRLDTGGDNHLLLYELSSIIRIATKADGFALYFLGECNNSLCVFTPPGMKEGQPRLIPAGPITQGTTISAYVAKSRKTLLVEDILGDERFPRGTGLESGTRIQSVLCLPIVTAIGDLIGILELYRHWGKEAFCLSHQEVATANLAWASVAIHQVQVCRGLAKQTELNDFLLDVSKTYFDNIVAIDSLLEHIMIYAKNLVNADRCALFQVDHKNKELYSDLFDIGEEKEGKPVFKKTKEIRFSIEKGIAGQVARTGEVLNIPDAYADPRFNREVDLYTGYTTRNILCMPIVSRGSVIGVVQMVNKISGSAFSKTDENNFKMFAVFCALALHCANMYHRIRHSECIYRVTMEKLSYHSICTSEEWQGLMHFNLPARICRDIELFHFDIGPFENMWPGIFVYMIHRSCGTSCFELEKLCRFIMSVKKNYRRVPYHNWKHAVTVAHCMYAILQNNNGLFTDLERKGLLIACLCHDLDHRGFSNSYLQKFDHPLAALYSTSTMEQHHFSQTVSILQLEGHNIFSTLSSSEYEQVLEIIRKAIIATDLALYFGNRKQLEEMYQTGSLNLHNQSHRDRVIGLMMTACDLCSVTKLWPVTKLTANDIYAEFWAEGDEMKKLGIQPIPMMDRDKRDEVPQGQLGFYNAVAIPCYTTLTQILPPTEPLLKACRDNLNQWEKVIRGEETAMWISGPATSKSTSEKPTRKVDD
Protocol: Rat recombinant PDE10A (rPDE10A2) was expressed in Sf9 cells using a recombinant rPDE10A baculovirus construct. Cells were harvested after 48 h of infection and the rPDE10A protein was purified by metal chelate chromatography on Ni-sepharose 6FF. Tested compounds were dissolved and diluted in 100% DMSO to a concentration 100 fold of the final concentration in the assay. Compound dilutions (0.4 μl) were added in 384 well plates to 20 μl of incubation buffer (50 mM Tris pH 7.8, 8.3 mM MgCl2, 1.7 mM EGTA). 10 μl of rPDE10A enzyme in incubation buffer was added and the reaction was started by addition of 10 μl substrate to a final concentration of 60 nM cAMP and 0.008 μCi ^3H-cAMP. The reaction was incubated for 60 minutes at room temperature. […] After sedimentation of the beads during 30 minutes the radioactivity was measured in a Perkin Elmer Topcount scintillation counter and results were expressed as cpm. For blanc values the enzyme was omitted from the reaction and replaced by incubation buffer. Control values were obtained by addition of a final concentration of 1% DMSO instead of compound. The same assay principle is applied for the measurement of the affinity of the compound for other members of the PDE family with appropriate modifications in incubation buffer, substrate concentration, incubation time and stop solution.

[2] = test system: apomorphine-induced stereotypy in rats; assay: Apomorphine-induced stereotypy in rats (APO); assay type: in vivo; settings: Rattus norvegicus, n.d.: found not active at threshold dose 2.5 mg/kg or 10 mg/kg (a)
Protocol: Apomorphine (1.0 mg/kg, i.v.)-induced stereotypy (compulsive sniffing, licking, chewing) was scored every 5 min over the first hour after injection of apomorphine, following a 1 hour interval pre-treatment with the test compound. The score system was: (3) pronounced, (2) moderate, (1) slight, and (0) absent.

[3] = po, * not soluble, tested orally as a suspension

Structure (SMILES) | IC50 [1] | ED50 ([2]; not further tested) | ED50 [2, 3]
CCc1ccc(-c2c(C)nc3c(-c4ccncc4)cc(C)nn23)cn1 [compound 88, 3-(6-ethyl-3-pyridinyl)-2,6-dimethyl-8-(4-pyridinyl)-imidazo[1,2-b]pyridazine] | 0.115 µM | > 2.5 mg/kg | –
Cc1nc2c(N3CCOCC3)ccnn2c1-c1ccc(N2CCCC2)nc1 [compound 89, 2-methyl-8-(4-morpholinyl)-3-[6-(1-pyrrolidinyl)-3-pyridinyl]-imidazo[1,2-b]pyridazine] | 0.132 µM | – | > 2.5 mg/kg
Cc1nc2c(N3CCOCC3)ccnn2c1-c1ccc(NC(C)C)nc1 [compound 90, N-(1-methylethyl)-5-[2-methyl-8-(4-morpholinyl)imidazo[1,2-b]pyridazin-3-yl]-2-pyridinamine] | 0.0676 µM | > 2.5 mg/kg | –
Cc1nc2c(N3CCOCC3)ccnn2c1-c1ccnc(N2CCCC2)c1 [compound 92, 2-methyl-8-(4-morpholinyl)-3-[2-(1-pyrrolidinyl)-4-pyridinyl]-imidazo[1,2-b]pyridazine] | 0.0575 µM | > 2.5 mg/kg | –
Cc1nc2c(N3CCOCC3)ccnn2c1-c1ccnc(NC(C)C)c1 [compound 93, N-(1-methylethyl)-4-[2-methyl-8-(4-morpholinyl)imidazo[1,2-b]pyridazin-3-yl]-2-pyridinamine] | 0.0251 µM | > 2.5 mg/kg | –
Cc1cc(-c2ccncc2)c2nc(C)c(-c3ccc(N4CCNCC4)nc3)n2n1 [compound 96, 2,6-dimethyl-3-[6-(1-piperazinyl)-3-pyridinyl]-8-(4-pyridinyl)-imidazo[1,2-b]pyridazine] | 0.186 µM | > 2.5 mg/kg | –
Cc1nc2c(-c3ccncc3)ccnn2c1-c1ccc(N2CCNCC2)nc1 [compound 97, 2-methyl-3-[6-(1-piperazinyl)-3-pyridinyl]-8-(4-pyridinyl)-imidazo[1,2-b]pyridazine] | 0.141 µM | > 2.5 mg/kg | –
c1cc(N2CCOCC2)c2nc(C3CC3)c(-c3ccc(N4CCNCC4)nc3)n2n1 [compound 98, 2-cyclopropyl-8-(4-morpholinyl)-3-[6-(1-piperazinyl)-3-pyridinyl]-imidazo[1,2-b]pyridazine] | 0.11 µM | > 2.5 mg/kg | –
Cc1nc2c(-c3ccncc3)cc(C3CC3)nn2c1-c1ccc(N2CCNCC2)nc1 [compound 99, 6-cyclopropyl-2-methyl-3-[6-(1-piperazinyl)-3-pyridinyl]-8-(4-pyridinyl)-imidazo[1,2-b]pyridazine] | 0.302 µM | > 2.5 mg/kg | –
Cc1cc(-c2ccncc2)c2nc(C3CC3)c(-c3ccc(N4CCNCC4)nc3)n2n1 [compound 101, 2-cyclopropyl-6-methyl-3-[6-(1-piperazinyl)-3-pyridinyl]-8-(4-pyridinyl)-imidazo[1,2-b]pyridazine] | 0.178 µM | > 2.5 mg/kg | –
c1cc(-c2ccnn3c(-c4ccc(N5CCNCC5)nc4)c(C4CC4)nc23)ccn1 [compound 102, 2-cyclopropyl-3-[6-(1-piperazinyl)-3-pyridinyl]-8-(4-pyridinyl)-imidazo[1,2-b]pyridazine] | 0.0447 µM | > 2.5 mg/kg | –
Cc1nc2c(N3CCOCC3)ccnn2c1-c1ccnc(N2CCNCC2)c1 [compound 103, 2-methyl-8-(4-morpholinyl)-3-[2-(1-piperazinyl)-4-pyridinyl]-imidazo[1,2-b]pyridazine] | 0.257 µM | > 2.5 mg/kg | –
Cc1nc2c(N3CCOCC3)ccnn2c1-c1ccc(CC(C)C)nc1 [compound 104, 2-methyl-3-[6-(2-methylpropyl)-3-pyridinyl]-8-(4-morpholinyl)-imidazo[1,2-b]pyridazine] | 0.0537 µM | > 2.5 mg/kg | –
Cc1nc2c(N3CCOCC3)ccnn2c1-c1ccnc(CC(C)C)c1 [compound 105, 2-methyl-3-[2-(2-methylpropyl)-4-pyridinyl]-8-(4-morpholinyl)-imidazo[1,2-b]pyridazine] | 0.0251 µM | > 2.5 mg/kg | –
CCc1ccc(-c2c(C3CC3)nc3c(N4CCOCC4)ccnn23)cn1 [compound 106, 2-cyclopropyl-3-(6-ethyl-3-pyridinyl)-8-(4-morpholinyl)-imidazo[1,2-b]pyridazine] | 0.0661 µM | > 2.5 mg/kg | –
CCc1ccc(-c2c(C)nc3c(N4CCOCC4)cc(C4CC4)nn23)cn1 [compound 107, 6-cyclopropyl-3-(6-ethyl-3-pyridinyl)-2-methyl-8-(4-morpholinyl)-imidazo[1,2-b]pyridazine] | 0.269 µM | > 2.5 mg/kg | –
CCc1ccc(-c2c(C)nc3c(N4CCOCC4)cc(C)nn23)cn1 [compound 108, 3-(6-ethyl-3-pyridinyl)-2,6-dimethyl-8-(4-morpholinyl)-imidazo[1,2-b]pyridazine] | 0.155 µM | > 2.5 mg/kg | –
CCc1ccc(-c2cnc3c(N4CCOCC4)ccnn23)cn1 [compound 109, 3-(6-ethyl-3-pyridinyl)-8-(4-morpholinyl)-imidazo[1,2-b]pyridazine] | 0.251 µM | > 2.5 mg/kg | –
Cc1nc2c(-c3ccncc3)ccnn2c1-c1ccc(C2CC2)nc1 [compound 111, 3-(6-cyclopropyl-3-pyridinyl)-2-methyl-8-(4-pyridinyl)-imidazo[1,2-b]pyridazine] | 0.0977 µM | > 2.5 mg/kg | –
CO[C@H]1CCN(c2ccc(-c3c(C)nc4c(N5CCOCC5)ccnn34)cn2)C1 [compound 113, 3-[6-[(3S)-3-methoxy-1-pyrrolidinyl]-3-pyridinyl]-2-methyl-8-(4-morpholinyl)-imidazo[1,2-b]pyridazine] | 0.158 µM | > 2.5 mg/kg | –
Cc1nc2c(N3CCOCC3)ccnn2c1-c1cnn(Cc2cccnc2)c1 [compound 115, 2-methyl-8-(4-morpholinyl)-3-[1-(3-pyridinylmethyl)-1H-pyrazol-4-yl]-imidazo[1,2-b]pyridazine] | 0.0355 µM | – | > 10 mg/kg
Cc1nc2c(N3CCOCC3)ccnn2c1-c1cn[nH]c1 [compound 116, 2-methyl-8-(4-morpholinyl)-3-(1H-pyrazol-4-yl)-imidazo[1,2-b]pyridazine] | 0.132 µM | – | > 10 mg/kg
COCCn1cc(-c2c(C3CC3)nc3c(N4CCOCC4)ccnn23)cn1 [compound 119, 2-cyclopropyl-3-[1-(2-methoxyethyl)-1H-pyrazol-4-yl]-8-(4-morpholinyl)-imidazo[1,2-b]pyridazine] | 0.0617 µM | – | > 10 mg/kg
COCCn1cc(-c2c(C(C)C)nc3c(N4CCOCC4)ccnn23)cn1 [compound 120, 3-[1-(2-methoxyethyl)-1H-pyrazol-4-yl]-2-(1-methylethyl)-8-(4-morpholinyl)-imidazo[1,2-b]pyridazine] | 0.692 µM | > 10 mg/kg | –
COCCn1cc(-c2c(C(F)(F)F)nc3c(-c4ccncc4)ccnn23)cn1 [compound 122, 3-[1-(2-methoxyethyl)-1H-pyrazol-4-yl]-8-(4-pyridinyl)-2-(trifluoromethyl)-imidazo[1,2-b]pyridazine] | 0.0302 µM | > 2.5 mg/kg | –
COC(C)(C)Cn1cc(-c2c(C)nc3c(-c4ccncc4)ccnn23)cn1 [compound 123, 3-[1-(2-methoxy-2-methylpropyl)-1H-pyrazol-4-yl]-2-methyl-8-(4-pyridinyl)-imidazo[1,2-b]pyridazine] | 0.0275 µM | > 2.5 mg/kg | –
COCCn1cc(-c2c(C)nc3c(-c4ccncc4)cc(C4CC4)nn23)cn1 [compound 126, 6-cyclopropyl-3-[1-(2-methoxyethyl)-1H-pyrazol-4-yl]-2-methyl-8-(4-pyridinyl)-imidazo[1,2-b]pyridazine] | 0.0501 µM | > 2.5 mg/kg | –
